Data as given in patent US7892581B2, “Compositions and methods for protection of harvested fruits from decay” (Gavish-Galilee Bio Applications Ltd., priority 2005, dated 2011).

Assay: Release profile of marker components into vapor phase (headspace GC)
Assay type: physicochemical
Settings: for Time to saturation of the vapor phase: release from essential oil on filter paper, sealed vial, 20° C.; for Concentration in the vapor phase: Thyme oil, within 3 hours
Procedure: The profile of release of essential oils was determined by analyses using Gas Chromatograph HP6890 Series GC-System (FID) coupled with HP 7694 Headspace sampler, equipped with column HP-5 Trace Analysis (5% PH Me Siloxane) of volume 30 m×0.25 mm×0.25 μm, at ambient temperature. The following model system was developed and calibrated: filter paper (Whatman No. 1) strips absorbed with appropriate volume of essential oil to achieve desired concentrations, i.e., similar to those used for in-vivo experiments, were placed in 20 ml and 100 ml vials. The vials were hermetically sealed and marked to indicate the time course of vaporization (1, 3, 14 and 24 hours). These vials were kept in the dark at a temperature of 20° C. until their gas chromatography analyses.
GC FID analysis was applied to determine the release profile into the vapor phase of marker individual components during a 24 hour period. […] For all markers tested, saturation was achieved within 3 hours.

| Compound | Time to saturation of the vapor phase [h] | Concentration in the vapor phase [%] |
| --- | --- | --- |
| C=CCN=C=S [allyl isothiocyanate] | ~1.5 | – |
| CC(C)=CCCC(C)CC=O (stereo not shown) [citronellal] | ~3.0 | – |
| Cc1ccc(C(C)C)cc1 [p-cymene] | – | ~56 |
| Cc1ccc(C(C)C)c(O)c1 [thymol] | – | ~1.2 |
